These are literature values, as cited in patent US20250099590A1, “HIGH DENSITY ULTRASOUND COUPLING GEL AND METHODS OF USE THEREOF” (ZetrOZ Systems LLC, priority 2023, published 2025).

The subject of data set [1] is musculoskeletal injuries. Conditions: SAM with 2.5% diclofenac, after 4-weeks of daily home-use.
Data set [2] concerns osteoarthritis-induced pain. Conditions: SAM treatment with 1% topical diclofenac, after 7 days.

`O=C(O)Cc1ccccc1Nc1c(Cl)cccc1Cl` [diclofenac]: in data set [1], the “global health and function” value was “global health and functional improvement”; the pain result was “significant pain reduction”. Moreover, in data set [2], the “Western Ontario McMaster Outcome (WOMAC)” value is “improved” and the osteoarthritis-induced pain entry is listed as “significantly alleviated”.
